# Results: patent publication US20050096347A1, “Beta3-Adrenoreceptor agonists, agonist compositions and methods of using” (Molecular Design International, Inc., priority 1997, published 2005)
# Structures can show the parent of a compound that is named as a salt. Where two headings read alike, the source gives them in different places.
# Experiments:
# [1] = molecular target: T1, human β2 Adrenoreceptor (Homo sapiens, UniProt P07550); experiment: Radioligand competition binding, human β2 adrenoreceptor expressed in CHO cells ([125I]ICYP); conditions: for pKi ± SEM, Human β2 Adrenoreceptor CHO: [125I]ICYP as radioligand, N = 4-9; for P.R. (potency ratio), Human β2 Adrenoreceptor CHO: relative to cmpd. 1 (TMQ), PR = antilog [pKi(drug) − pKi(TMQ)]
# T1 construct: expressed in transfected cells
# T1 sequence (P07550 whole entry): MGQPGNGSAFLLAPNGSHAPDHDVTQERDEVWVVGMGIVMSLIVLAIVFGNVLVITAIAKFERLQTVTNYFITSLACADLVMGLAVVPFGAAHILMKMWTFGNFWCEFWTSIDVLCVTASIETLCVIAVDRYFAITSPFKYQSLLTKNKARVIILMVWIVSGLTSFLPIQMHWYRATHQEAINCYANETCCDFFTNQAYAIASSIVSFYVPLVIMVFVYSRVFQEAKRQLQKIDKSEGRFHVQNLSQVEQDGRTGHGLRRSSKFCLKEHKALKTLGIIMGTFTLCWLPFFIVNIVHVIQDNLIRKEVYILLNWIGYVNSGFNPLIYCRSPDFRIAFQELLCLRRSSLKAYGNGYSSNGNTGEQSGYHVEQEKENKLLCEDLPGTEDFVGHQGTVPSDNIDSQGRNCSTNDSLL
# [2] = molecular target: T2, Thromboxane A2/Prostaglandin H2 (TP) receptor (Homo sapiens, UniProt P21731); experiment: Radioligand competition binding, TP receptor sites in human platelets ([3H]SQ 29,548); conditions: for pKi ± SEM, Human TP receptors: [3H]SQ 29,548 as radioligand, platelets, N = 4-9; for P.R. (potency ratio), Human TP receptors: relative to cmpd. 1 (TMQ), PR = antilog [pKi(drug) − pKi(TMQ)]
# T2 construct: endogenous in cells; host or cells: human platelets (from platelet rich plasma)
# T2 sequence (P21731 1-343): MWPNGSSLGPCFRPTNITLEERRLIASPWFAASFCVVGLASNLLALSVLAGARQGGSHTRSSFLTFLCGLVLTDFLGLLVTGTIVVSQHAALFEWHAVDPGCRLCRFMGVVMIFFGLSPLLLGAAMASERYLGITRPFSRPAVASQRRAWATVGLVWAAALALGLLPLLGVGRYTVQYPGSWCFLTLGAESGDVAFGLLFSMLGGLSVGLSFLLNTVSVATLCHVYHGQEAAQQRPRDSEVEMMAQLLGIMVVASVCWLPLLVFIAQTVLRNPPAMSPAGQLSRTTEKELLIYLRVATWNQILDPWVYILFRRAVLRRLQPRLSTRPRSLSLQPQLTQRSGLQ
# Protocol: For binding experiments, human platelet rich plasma (PRP) was centrifuged and re-suspended in 50 mM Tris-saline buffer, pH 7.4. […] Filters were placed in plastic scintillation vials containing 10 mL of an emulsion-type scintillation mixture and radioactivity measured by liquid scintillation spectrometry.
# [3] = molecular target: T3, Human β3 Adrenoreceptors (Homo sapiens, UniProt P13945); experiment: hβ3 cAMP functional activity in CHO cells expressing human β3 adrenoreceptors (Table 8); type: cell-based; conditions: for EC50: read-out: hβ3 cAMP EC50(nM) +/−SEM
# T3 construct: expressed in transfected cells
# T3 sequence (P13945 whole entry): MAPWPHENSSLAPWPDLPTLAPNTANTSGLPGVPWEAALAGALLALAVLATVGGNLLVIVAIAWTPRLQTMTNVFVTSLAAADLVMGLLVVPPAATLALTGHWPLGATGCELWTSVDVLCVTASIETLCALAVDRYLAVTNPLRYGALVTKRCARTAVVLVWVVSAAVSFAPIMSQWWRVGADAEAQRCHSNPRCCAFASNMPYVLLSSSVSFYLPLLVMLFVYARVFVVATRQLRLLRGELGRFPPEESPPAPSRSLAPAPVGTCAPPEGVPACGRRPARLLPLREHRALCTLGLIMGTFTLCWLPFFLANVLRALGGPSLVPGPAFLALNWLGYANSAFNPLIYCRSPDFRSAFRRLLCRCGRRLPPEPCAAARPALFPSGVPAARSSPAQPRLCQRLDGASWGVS
# [4] = molecular target: human β1 Adrenoreceptor (Homo sapiens, UniProt P08588); experiment: Radioligand competition binding, human β1 adrenoreceptor expressed in CHO cells ([125I]ICYP)
# Chain of human β1 Adrenoreceptor (P08588 whole entry): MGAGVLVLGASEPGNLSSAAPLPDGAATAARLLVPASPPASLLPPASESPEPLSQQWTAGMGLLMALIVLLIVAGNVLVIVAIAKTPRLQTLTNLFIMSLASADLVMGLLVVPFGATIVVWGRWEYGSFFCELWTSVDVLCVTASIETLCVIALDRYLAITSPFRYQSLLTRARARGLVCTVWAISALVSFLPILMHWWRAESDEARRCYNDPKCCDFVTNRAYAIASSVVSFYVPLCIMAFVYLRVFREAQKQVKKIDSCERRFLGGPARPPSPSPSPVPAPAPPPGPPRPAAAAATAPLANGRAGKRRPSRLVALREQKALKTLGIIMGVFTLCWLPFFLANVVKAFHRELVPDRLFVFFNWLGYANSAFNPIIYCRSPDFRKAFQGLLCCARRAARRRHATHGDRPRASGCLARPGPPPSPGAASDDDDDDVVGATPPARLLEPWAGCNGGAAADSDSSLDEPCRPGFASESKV
# Protocol: Competitive and comparative binding experiments on β1 Adrenoreceptors, β2 Adrenoreceptors and β3-Adrenoreceptors expressed in CHO cells were performed as described previously. […] CHO cells grown to a confluence in 150-mL flasks were detached into Ham's F-12 medium after treatment with 0.05% trypsin-0.53 mM EDTA solution. The cells were then pelleted and washed three times with Tris-EDTA buffer (50 mM Tris-HCl, 150 mM NaCl, 20 mM EDTA, pH 7.4) and resuspended in the same buffer.
# Competition binding experiments were performed in duplicates using these whole cells. […] The final volume in each tube was 0.25 mL. Nonspecific binding (5-30%) was determined in the presence of 1 μM (±)-propranolol. Incubations were carried out for 60 min at 37° C. Binding reactions were terminated by rapid filtration through Whatman GF/B glass fiber filters on a Brandel model 12-R tissue harvester. Filters were washed twice with ice cold Tris-EDTA buffer to remove free ICYP. The filters were dried under tissue harvester vacuum and radioactivity was measured by gamma scintillation spectrometry (Beckman model 8000 gamma counter, Palo Alto, Calif.). Specific binding to β Adrenoreceptor sites in these cells varied from 94 to 100%
# Inhibitory concentration-50 (IC50) value of each competing drug was determined graphically from individual plots of percent radioligand bound versus log drug concentration on O-adrenoceptors and human platelets. […] Dissociation constants (Ki) for each competing drug were calculated using the equation: [formula] and the data expressed as pKi (i.e., −log Ki) values.
# [5] = molecular target: T4, rat-β3-AR (Rattus norvegicus, UniProt P26255); experiment: cAMP accumulation in CHO cells expressing rat β3-AR; type: cell-based; conditions: for Emax: read-out: Emax, maximal cAMP accumulation; for EC50: read-out: pKact (−log EC50) for cAMP accumulation, rat-β3-AR (converted)
# T4 construct: expressed in transfected cells; host or cells: CHO cells
# T4 sequence (P26255 whole entry): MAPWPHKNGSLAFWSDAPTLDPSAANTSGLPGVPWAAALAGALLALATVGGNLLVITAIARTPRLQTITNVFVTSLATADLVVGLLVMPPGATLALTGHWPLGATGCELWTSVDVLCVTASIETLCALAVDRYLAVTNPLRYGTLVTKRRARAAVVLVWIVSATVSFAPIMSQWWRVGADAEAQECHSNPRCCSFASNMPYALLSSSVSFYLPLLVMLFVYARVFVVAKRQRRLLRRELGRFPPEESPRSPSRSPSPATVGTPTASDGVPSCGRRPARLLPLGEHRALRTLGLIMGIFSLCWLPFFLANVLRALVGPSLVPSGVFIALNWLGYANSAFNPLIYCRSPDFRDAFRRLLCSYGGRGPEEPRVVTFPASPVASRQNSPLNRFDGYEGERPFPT
# Protocol: (§1) cAMP Radioimmunoassay (CAMP-RIA Assay). […] The precipitated protein was dissolved in 0.1N NaOH.
# [6] = molecular target: Human β3-AR (Homo sapiens, UniProt P13945); experiment: cAMP radioimmunoassay (cAMP-RIA), CHO cells expressing human β3-AR; type: cell-based; set-up: expressed in transfected cells; conditions: for I.A., Human β3-AR, cAMP-RIA assay: percentage of maximal response of R-(−)-isoproterenol (100%)
# Chain of Human β3-AR (P13945 whole entry): as the sequence (P13945 whole entry) above
# Protocol: as §1
# [7] = molecular target: β2-AR (Rattus norvegicus, UniProt P10608); experiment: Relaxation of carbachol-precontracted isolated rat tracheal strips; conditions: for I.A. (intrinsic activity), Trachea: maximal response relative to maximal response of (−)-isoproterenol
# Chain of β2-AR (P10608 whole entry): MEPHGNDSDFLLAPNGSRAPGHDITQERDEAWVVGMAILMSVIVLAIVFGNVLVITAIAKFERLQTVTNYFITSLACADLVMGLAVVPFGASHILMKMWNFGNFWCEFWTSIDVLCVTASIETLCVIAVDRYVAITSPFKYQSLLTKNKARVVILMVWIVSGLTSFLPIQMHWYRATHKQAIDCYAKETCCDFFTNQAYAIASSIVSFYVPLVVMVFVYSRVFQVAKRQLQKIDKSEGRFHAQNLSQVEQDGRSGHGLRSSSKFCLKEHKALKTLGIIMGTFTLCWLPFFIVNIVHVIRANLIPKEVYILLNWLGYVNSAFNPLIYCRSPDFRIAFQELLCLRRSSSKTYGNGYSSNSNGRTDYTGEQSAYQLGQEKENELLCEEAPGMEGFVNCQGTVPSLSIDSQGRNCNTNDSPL
# Protocol: (§2) Male Sprague Dawley rats (Harlan Industries, Cumberland, Ind.) housed under a 12 hour light/dark cycle and fed Purina Rodent Laboratory Chow (Ralston Purina., St. Louis, Mo.) and water ad libitum, were used for the studies. […] All tissues were suspended and equilibrated in modified Kreb's buffer in water-jacketed baths at 37° C. Resting tensions of 1 g for right atria, trachea and aorta, and of 200 mg for esophageal smooth muscle were used. All tissue responses were measured on a Grass Polygraph Model 7C with a Grass FT-03C isometric force-displacement transducer.
# (§3) Carbachol-precontracted tissues were included as controls through the duration of relaxation studies.
# [8] = molecular target: Atypical-β/β3-AR (Rattus norvegicus, UniProt P26255); experiment: Relaxation of carbachol-precontracted rat esophageal smooth muscle; conditions: for I.A. (intrinsic activity), Esophageal Smooth Muscle (Atypical-β/β3-AR): maximal response relative to maximal response of (−)-isoproterenol
# Chain of Atypical-β/β3-AR (P26255 whole entry): as the sequence (P26255 whole entry) above
# Protocol: as §2, §3
# [9] = molecular target: Human β1-AR (Homo sapiens, UniProt P08588); experiment: cAMP radioimmunoassay (cAMP-RIA), CHO cells expressing human β1-AR; type: cell-based; set-up: expressed in transfected cells; conditions: percentage of maximal response of R-(−)-isoproterenol (100%)
# Chain of Human β1-AR (P08588 whole entry): as the sequence (P08588 whole entry) above
# Protocol: as §1
# [10] = molecular target: T4, rat-β3-AR; experiment: Binding in CHO cells expressing rat β3-AR; conditions: mean ± SEM (n in parentheses), read-out: pKi (−log Ki) for binding, rat-β3-AR (converted)
# [11] = molecular target: β1-AR (Rattus norvegicus, UniProt P18090); experiment: Chronotropic responses of spontaneously beating isolated rat right atria
# Chain of β1-AR (P18090 whole entry): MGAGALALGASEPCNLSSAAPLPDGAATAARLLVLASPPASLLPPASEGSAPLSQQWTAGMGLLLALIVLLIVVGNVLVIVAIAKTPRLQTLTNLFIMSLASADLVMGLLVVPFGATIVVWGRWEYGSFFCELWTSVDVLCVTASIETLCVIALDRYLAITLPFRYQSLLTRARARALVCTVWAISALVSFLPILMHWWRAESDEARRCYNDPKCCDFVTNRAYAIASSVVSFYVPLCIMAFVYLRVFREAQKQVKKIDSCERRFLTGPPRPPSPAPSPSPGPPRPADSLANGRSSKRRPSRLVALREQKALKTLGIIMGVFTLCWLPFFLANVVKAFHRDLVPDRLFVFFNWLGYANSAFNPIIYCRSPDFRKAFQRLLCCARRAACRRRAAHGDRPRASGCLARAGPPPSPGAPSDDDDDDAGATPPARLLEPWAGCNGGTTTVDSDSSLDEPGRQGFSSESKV
# Protocol: as §2
# The tissue was again washed 6-7 times with 10 ml of buffer, followed by repeated washes every 10-15 min.
# [12] = molecular target: T5, human β3-Adrenoreceptor (Homo sapiens, UniProt P13945); experiment: Radioligand competition binding, human β3 adrenoreceptor expressed in CHO cells ([125I]ICYP); conditions: N = 3-9 (Table 5)
# T5 construct: expressed in transfected cells
# T5 sequence (P13945 whole entry): as the sequence (P13945 whole entry) above
# [13] = CHO cells, mean ± SEM (n in parentheses)
# [14] = relative to that of (−)-isoproterenol, CHO cells expressing rat-β3-AR
# [15] = CHO cells (Table 8), read-out: hβ2 Binding ki
# [16] = CHO cells, [125I]ICYP, N = 3-9 (Table 5)
structure (smiles),measurement,setting,value
"Br.Oc1cc2c(cc1O)C(Cc1cc(I)c(I)c(I)c1)NCC2 (stereo not shown) [Compound 21b, 6,7-Dihydroxy-1-(3,4,5-triiodobenzyl)-1,2,3,4-tetrahydroisoquinoline Hydrobromide]","pKi ± SEM, Human β2 Adrenoreceptor CHO",[1],8.82
same,"P.R. (potency ratio), Human β2 Adrenoreceptor CHO",[1],29
same,"pKi ± SEM, Human TP receptors",[2],4.22
same,"P.R. (potency ratio), Human TP receptors",[2],0.003
Nc1c(I)cc(CC2NCCc3cc(O)c(O)cc32)cc1I (stereo not shown),hβ3 cAMP % Iso +/−SEM,[3],108 +/− 2 % Iso
same,EC50,[3],< 4 nM
same,Ki,[4],63.4 nM
"CC(C)NC[C@H](O)c1ccc(O)c(O)c1 (single isomer, unassigned) [(−)Isoproterenol, isoproterenol, reference compound]",Emax,[5]; CHO,100%
same,"I.A., Human β3-AR, cAMP-RIA assay",[6],100%
same,"I.A. (intrinsic activity), Trachea",[7],1.00
same,"I.A. (intrinsic activity), Esophageal Smooth Muscle (Atypical-β/β3-AR)",[8],1.00
"COc1cc(CC2NCCc3cc(O)c(O)cc32)cc(OC)c1OC (racemic) [Compound 1, trimetoquinol, reference compound]","I.A. ± SEM, Human β1-AR, cAMP-RIA assay",[9],109 ± 10%
same,EC50,[6],2.51 nM
"Cl.Oc1cc2c(cc1O)C(Cc1cc(C(F)(F)F)cc(C(F)(F)F)c1)NCC2 (stereo not shown) [Compound 27, 1-(3,5-Bis-trifluoromethylbenzyl)-6,7-dihydroxy-1,2,3,4-tetrahydroisoquinoline Hydrochloride]","pKi ± SEM, Human β2 Adrenoreceptor CHO",[1],5.36
same,"P.R. (potency ratio), Human β2 Adrenoreceptor CHO",[1],0.01
same,"pKi ± SEM, Human TP receptors",[2],4.08 ± 0.02
same,"P.R. (potency ratio), Human TP receptors",[2],0.002
"COc1cc2c(cc1OC)C(Cc1cc(OC)c(OC)c(OC)c1)NCC2 (stereo not shown) [6,7-Dimethoxy TMQ, reference compound]",Ki,[10],132000 nM
same,"pKact (−log EC50) for cAMP accumulation, rat-β3-AR",[5]; [13],no activity upto 3 × 10^−5 M
COc1c(I)cc(CC2NCCc3nc(NC(C)=O)sc32)cc1I.O=C(O)/C=C\C(=O)O (stereo not shown) [Compound 10],"I.A. ± SEM, Human β1-AR, cAMP-RIA assay",[9],<10%
same,"I.A., Human β3-AR, cAMP-RIA assay",[6],<10%
Oc1cc2c(cc1O)C(Cc1cc(I)cc(I)c1)NCC2 (stereo not shown) [DemethoxyDITMQ],Ki,[10],1580 nM
same,EC50,[5]; [13],1.82 nM
same,Emax,[5]; [14],97.7 ± 5.85%
"Br.Oc1cc2c(cc1O)C(Cc1cc(I)c(O)c(I)c1)NCC2 (stereo not shown) [Compound 18, 6,7-Dihydroxy-1-(4-hydroxy-3,5-diiodobenzyl)-1,2,3,4-tetrahydroisoquinoline Hydrobromide]","pKi ± SEM, Human β2 Adrenoreceptor CHO",[1],7.93
same,"pKi ± SEM, Human TP receptors",[2],4.72
"I.O=C(Nc1ccc(CC2NCCc3cc(O)c(O)cc32)cc1I)c1ccccc1 (stereo not shown) [Compound 26b, 1-(4-Benzoylamino-3-iodobenzyl)-6,7-dihydroxy-1,2,3,4-tetrahydroisoquinoline Hydroiodide]","pKi ± SEM, Human β2 Adrenoreceptor CHO",[1],8.70
same,"P.R. (potency ratio), Human β2 Adrenoreceptor CHO",[1],22
same,"pKi ± SEM, Human TP receptors",[2],5.27 ± 0.13
same,"P.R. (potency ratio), Human TP receptors",[2],0.03
COc1c(I)cc(CC2NCCc3nc(N)sc32)cc1I (stereo not shown),Ki,[1],534 nM
same,EC50,[3],506 nM
"COc1cc2c(cc1OC)C(Cc1cc(I)c(NC(C)=O)c(I)c1)NCC2 (stereo not shown) [6,7-Dimethoxy-acetamidoDITMQ, 1-(4-Acetamido-3,5-diiodobenzyl)-6,7-dimethoxy-1,2,3,4-tetrahydroisoquinoline Hydrochloride]",Ki,[10],14500 nM
COc1c(I)cc(CC2NCCc3cc(O)c(O)cc32)cc1I (stereo not shown) [drawing 80],Ki,[1]; [15],3.1 nM
same,EC50,[3],< 4 nM
"Br.CC(=O)Nc1c(I)cc(CC2NCCc3cc(O)c(O)cc32)cc1I (stereo not shown) [Compound 15, 1-(4-Acetamido-3,5-diiodobenzyl)-6,7-dihydroxy-1,2,3,4-tetrahydroisoquinoline Hydrobromide]","pKi ± SEM, Human β2 Adrenoreceptor CHO",[1],8.06
same,"pKi ± SEM, Human TP receptors",[2],6.45
same,Ki,[10],52.5 nM
same,EC50,[5]; [13],0.457 nM
same,Emax,[5]; [14],89.6 ± 6.93%
same,EC50,[7],0.603 nM
same,"I.A. (intrinsic activity), Trachea",[7],0.84 ± 0.02
same,EC50,[8],2.09 nM
same,"I.A. (intrinsic activity), Esophageal Smooth Muscle (Atypical-β/β3-AR)",[8],0.99 ± 0.03
same,EC50,[11],1.1 nM
same,"I.A. (intrinsic activity), Right Atria (β-AR)",[11]; maximal response relative to maximal response of (−)-isoproterenol,0.93 ± 0.04
"COc1cc(CC2NCCc3cc4c(cc32)OCO4)cc(OC)c1OC (stereo not shown) [6,7-Methylenedioxy TMQ]",Ki,[10],51300 nM
same,EC50,[5]; [13],1200 nM
same,Emax,[5]; [14],70.9 ± 4.41%
"COc1c(I)cc(CC2NCCc3cc(O)c(O)cc32)cc1I (stereo not shown) [Compound 2, reference compound]","pKi ± SEM, Human TP receptors",[2],7.33
same,Ki,[10],457 nM
same,EC50,[5]; [13],0.398 nM
same,Emax,[5]; [14],96.9 ± 10.1%
[N-]=[N+]=Nc1ccc(CC2NCCc3cc(O)c(O)cc32)cc1I (stereo not shown),Ki,[1]; [15],24 nM
same,hβ3 cAMP % Iso +/−SEM,[3],81 +/− 3 % Iso
same,EC50,[3],46 nM
same,Ki,[4],14.2 nM
COc1c(I)cc(CC2NCCc3cc(O)ccc32)cc1I (stereo not shown) [drawing 83],Ki,[1]; [15],47 nM
same,hβ3 cAMP % Iso +/−SEM,[3],89 +/− 5 % Iso
same,EC50,[3],33.5 nM
same,Ki,[4],278 nM
COc1cc(CC2NCCc3cc(O)c(O)cc32)cc(OC)c1OC (stereo not shown),EC50,[3],< 1 nM
COc1cc(CC2NCCc3nc(N)sc32)cc(OC)c1OC (stereo not shown),Ki,[1]; [15],> 3000 nM
same,EC50,[3],> 3160 nM
same,Ki,[4],> 3000 nM
"CC(=O)Nc1ccc(CC2NCCc3cc(O)c(O)cc32)cc1I.I (stereo not shown) [Compound 26a, 1-(4-Acetamido-3-iodobenzyl)-6,7-dihydroxy-1,2,3,4-tetrahydroisoquinoline Hydroiodide]","pKi ± SEM, Human β2 Adrenoreceptor CHO",[1],8.11
same,"P.R. (potency ratio), Human β2 Adrenoreceptor CHO",[1],5.6
same,"fold decrease in TP receptor binding affinity on removal of one iodine (24 vs 21c, 26a vs 15)",[2],5 fold
same,"pKi ± SEM, Human TP receptors",[2],5.83
same,"P.R. (potency ratio), Human TP receptors",[2],0.11
"Cl.Cl.Nc1c(I)cc(CC2NCCc3cc(O)c(O)cc32)cc1I (stereo not shown) [Compound 21c, 1-(4-Amino-3,5-diiodobenzyl)-6,7-dihydroxy-1,2,3,4-tetrahydroisoquinoline Dihydrochloride]","pKi ± SEM, Human β2 Adrenoreceptor CHO",[1],8.81
same,"P.R. (potency ratio), Human β2 Adrenoreceptor CHO",[1],28
same,fold reduction in TP receptor binding affinity compared to 2,[2],3 fold
same,"pKi ± SEM, Human TP receptors",[2],6.73
same,"P.R. (potency ratio), Human TP receptors",[2],0.87
same,Ki,[10],724 nM
"COc1cc(CC2NCCc3nc(N)sc32)cc(OC)c1OC.Cl.Cl (stereo not shown) [7 (B-29), 2-Amino-4-(3′,4′,5′-trimethoxyphenylmethyl)-4,5,6,7-tetrahydro-thiazolo[5,4-c]pyridine Dihydrochloride]","pKi ± SEM, Human β2-AR",[1]; [16],6.21 ± 0.12
same,"pKi ± SEM, Human β3-AR",[12],4.17 ± 0.05
same,"I.A. ± SEM, Human β1-AR, cAMP-RIA assay",[9],<10%
same,EC50,"[6]; CHO cells, N.A. = Not active at 100 μM, N = 4-12, read-out: pKact ± SEM, Human β3-AR, cAMP-RIA assay (converted)",8710 nM
same,"I.A., Human β3-AR, cAMP-RIA assay",[6],54 ± 1%
same,"pKi ± SEM, Human β1-AR",[4]; [16],5.21 ± 0.08
